US4999042A, “Phenyl oximino-acetate fungicides” (Imperial Chemical Industries PLC, priority 1986, dated 1991)
Like-named read-outs stand apart in the source and are kept apart here.

What was measured:
Assay type in all cases: in vivo
[1] = tested on: Plasmopara viticola (vine); assay: Foliar fungal disease control, Plasmopara viticola on vine
[2] = tested on: Venturia inaequalis (apple); assay: Foliar fungal disease control, Venturia inaequalis on apple
[3] = tested on: Cercospora arachidicola (peanut); assay: Foliar fungal disease control, Cercospora arachidicola on peanut
[4] = tested on: Erysiphe graminis hordei (barley); assay: Foliar fungal disease control, Erysiphe graminis hordei on barley; details: inoculated 24 hours before treatment
[5] = tested on: Puccinia recondita (wheat); assay: Foliar fungal disease control, Puccinia recondita on wheat
[6] = tested on: Pyricularia oryzae (rice)
Maize (MZ) = assay: Plant growth regulating whole plant screen, maize; details: 4000 ppm (4 kg/ha) spray
Method: (§1) This Example illustrates the plant growth regulating properties of compounds 1, 2, 5 and 12-15 of Table I when tested on a whole plant screen against two species of plant. The plant species are identified in Table IV with the leaf stage at which they were sprayed.
(§2) A formulation of each chemical was applied at 4000 ppm (4 kg/ha in a 1000 1/ha field volume) using a tracksprayer and a SS8004E (Teejet) nozzle.
(§3) After spraying, the plants were grown in a glasshouse with 25° C. day/22° C. night temperatures. Supplementary lighting was supplied when necessary to provide an average photoperiod of 16 hours (14 hours minimum).
(§4) After 2-6 weeks in the glasshouse, depending on species and time of year, the plants were visually assessed for morphological characteristics against a control plant sprayed with a blank formulation.

Apple (AP) = assay: Plant growth regulating whole plant screen, apple; details: 4000 ppm (4 kg/ha) spray, visual score after 2-6 weeks
Method: as §1, §2, §3, §4

[7] = 100 ppm foliar spray plus root drench approx. 40 ppm a.i./dry soil, 1-2 days before inoculation
[8] = 100 ppm foliar spray plus root drench approx. 40 ppm a.i./dry soil

| Structure (SMILES) | disease control grading, PLASMOPARA VITICOLA (VINE) [1, 7] | disease control grading, VENTURIA INAEQUALIS (APPLE) [2, 7] | disease control grading, CERCOSPORA ARACHIDICOLA (PEANUT) [3, 7] | disease control grading, ERYSIPHE GRAMINIS HORDEI (BARLEY) [4, 8] | disease control grading, PUCCINIA RECONDITA (WHEAT) [5, 7] | disease control grading, P[…] (RICE) [6, 7] | I = Interligular or internodal length reduction (Apple (AP)) | R = Retardation (Apple (AP)) | further results |
| --- | --- | --- | --- | --- | --- | --- | --- | --- | --- |
| CON=C(C(=O)OC)c1ccccc1/C=C/c1ccco1 (single isomer, unassigned) [Compound 4] | 4 | 4 | 3 (trace - 5% of disease on untreated plants) | 0 (60-100% of disease on untreated plants) | 4 | 3 (trace - 5% of disease on untreated plants) |  |  |  |
| CON=C(C(=O)OC)c1ccccc1OC1CCCCC1 (single isomer, unassigned) [Compound 10] |  |  |  |  |  |  |  |  | disease control grading, PLASMOPARA VITICOLA (VINE) ([1]; 25 ppm foliar spray only): 2 (6-25% of disease on untreated plants); disease control grading, VENTURIA INAEQUALIS (APPLE) ([2]; 25 ppm foliar spray only): 2 (6-25% of disease on untreated plants); disease control grading, CERCOSPORA ARACHIDICOLA (PEANUT) ([3]; 25 ppm foliar spray only): 0 (60-100% of disease on untreated plants); disease control grading, ERYSIPHE GRAMINIS HORDEI (BARLEY) ([4]; 25 ppm foliar spray only): 3 (trace - 5% of disease on untreated plants); disease control grading, PUCCINIA RECONDITA (WHEAT) ([5]; 25 ppm foliar spray only): 3 (trace - 5% of disease on untreated plants); disease control grading, P[…] (RICE) ([6]; 25 ppm foliar spray only): 3 (trace - 5% of disease on untreated plants) |
| CON=C(C(=O)OC)c1ccccc1/C=C/c1ccccc1 (single isomer, unassigned) [Compound 1, methyl O-methyl (2-(E)-styrylphenyl)oximino-acetate] | 4 | 3 (trace - 5% of disease on untreated plants) | 0 (60-100% of disease on untreated plants) | 0 (60-100% of disease on untreated plants) | 0 (60-100% of disease on untreated plants) | 0 (60-100% of disease on untreated plants) |  |  | P = Phytotoxicity (Maize (MZ); after 2-6 weeks): 1 (less than 10%); A = Apical damage (Maize (MZ); visual score after 2-6 weeks): 3 (61-100%); G = Greening effect (Maize (MZ); visual score after 2-6 weeks): 2 (31-60%); I = Interligular or internodal length reduction (Maize (MZ); visual score after 2-6 weeks): 3 (61-100%); R = Retardation (Maize (MZ); visual score after 2-6 weeks): 3 (61-100%) |
| CON=C(C(=O)OC)c1cccc2c1Oc1ccccc1O2 (single isomer, unassigned) [Compound 32] | 4 | 2 (6-25% of disease on untreated plants) | 1 (26-59% of disease on untreated plants) | 3 (trace - 5% of disease on untreated plants) | 4 | 0 (60-100% of disease on untreated plants) |  |  |  |
| CON=C(C(=O)OC)c1ccccc1Oc1ccc([N+](=O)[O-])cc1 (single isomer, unassigned) [Compound 7] | 3 (trace - 5% of disease on untreated plants) | 3 (trace - 5% of disease on untreated plants) | 0 (60-100% of disease on untreated plants) | 1 (26-59% of disease on untreated plants) | 0 (60-100% of disease on untreated plants) | 0 (60-100% of disease on untreated plants) |  |  |  |
| CON=C(C(=O)OC)c1ccccc1NC(=O)c1ccccc1 (single isomer, unassigned) [Compound 12] |  |  |  |  |  |  | 1 (10-30%) | 2 (31-60%) | I = Interligular or internodal length reduction (Maize (MZ); visual score after 2-6 weeks): 1 (10-30%); R = Retardation (Maize (MZ); visual score after 2-6 weeks): 2 (31-60%); G = Greening effect (Apple (AP)): 1 (10-30%) |
| CON=C(C(=O)OC)c1ccccc1NC(=O)c1ccco1 (single isomer, unassigned) [Compound 14] |  |  |  |  |  |  | 1 (10-30%) | 1 (10-30%) |  |
| CON=C(C(=O)OC)c1ccccc1NC(=O)c1cccs1 (single isomer, unassigned) [Compound 15] |  |  |  |  |  |  | 1 (10-30%) | 1 (10-30%) | G = Greening effect (Apple (AP)): 1 (10-30%) |
